# Source: ChEMBL document CHEMBL5649166, “RIP3 induces apoptosis independent of pronecrotic kinase activity” (Mol Cell, 2014)
# Experiments:
# [1] = target: Non-receptor tyrosine-protein kinase TYK2 (Homo sapiens) (UniProt P29597); assay: Inhibition of human TYK2 using KKSRGDYMTMQIG as substrate at 1 uM in presence of 32P-ATP by Hotspot assay relative to control; values are per cent of control
# [2] = target: Mitogen-activated protein kinase kinase kinase 9 (Homo sapiens) (UniProt P80192); assay: Inhibition of human MLK1/MAP3K9 using casein as substrate at 1 uM in presence of 32P-ATP by Hotspot assay relative to control; values are per cent of control
# Sequence of Mitogen-activated protein kinase kinase kinase 9 (Homo sapiens) (P80192 whole entry, looked up): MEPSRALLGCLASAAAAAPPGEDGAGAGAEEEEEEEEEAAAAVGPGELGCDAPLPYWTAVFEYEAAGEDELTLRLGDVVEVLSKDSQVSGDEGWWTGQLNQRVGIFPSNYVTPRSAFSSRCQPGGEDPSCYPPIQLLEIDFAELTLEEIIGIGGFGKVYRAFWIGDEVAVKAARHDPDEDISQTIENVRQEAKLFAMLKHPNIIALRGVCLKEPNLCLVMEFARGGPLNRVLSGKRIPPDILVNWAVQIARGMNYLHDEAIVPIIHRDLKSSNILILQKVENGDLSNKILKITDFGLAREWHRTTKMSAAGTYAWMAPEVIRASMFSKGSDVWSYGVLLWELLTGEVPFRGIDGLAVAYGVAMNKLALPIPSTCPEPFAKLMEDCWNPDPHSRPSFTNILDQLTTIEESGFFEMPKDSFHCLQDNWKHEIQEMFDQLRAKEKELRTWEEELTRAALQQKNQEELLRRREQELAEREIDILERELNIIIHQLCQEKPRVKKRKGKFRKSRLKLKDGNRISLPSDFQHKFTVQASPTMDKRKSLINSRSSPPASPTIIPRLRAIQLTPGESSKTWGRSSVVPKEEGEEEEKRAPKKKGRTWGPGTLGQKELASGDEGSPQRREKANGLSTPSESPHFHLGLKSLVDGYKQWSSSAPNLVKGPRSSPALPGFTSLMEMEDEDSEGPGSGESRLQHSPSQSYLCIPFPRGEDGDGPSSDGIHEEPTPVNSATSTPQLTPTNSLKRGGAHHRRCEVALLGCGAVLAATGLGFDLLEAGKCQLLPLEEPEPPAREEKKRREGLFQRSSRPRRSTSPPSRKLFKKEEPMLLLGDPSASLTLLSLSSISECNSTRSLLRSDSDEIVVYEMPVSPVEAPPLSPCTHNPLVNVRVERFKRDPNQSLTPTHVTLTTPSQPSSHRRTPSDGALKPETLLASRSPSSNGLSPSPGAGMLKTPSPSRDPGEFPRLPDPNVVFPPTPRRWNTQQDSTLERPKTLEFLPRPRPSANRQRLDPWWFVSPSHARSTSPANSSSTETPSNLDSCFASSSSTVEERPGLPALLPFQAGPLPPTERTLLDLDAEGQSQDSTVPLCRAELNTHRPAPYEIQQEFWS
# [3] = target: Aurora kinase B (Homo sapiens) (UniProt Q96GD4); assay: Inhibition of human Aurora B using H-LRRASLG as substrate at 1 uM in presence of 32P-ATP by Hotspot assay relative to control; values are per cent of control
# Sequence of Aurora kinase B (Homo sapiens) (Q96GD4 whole entry): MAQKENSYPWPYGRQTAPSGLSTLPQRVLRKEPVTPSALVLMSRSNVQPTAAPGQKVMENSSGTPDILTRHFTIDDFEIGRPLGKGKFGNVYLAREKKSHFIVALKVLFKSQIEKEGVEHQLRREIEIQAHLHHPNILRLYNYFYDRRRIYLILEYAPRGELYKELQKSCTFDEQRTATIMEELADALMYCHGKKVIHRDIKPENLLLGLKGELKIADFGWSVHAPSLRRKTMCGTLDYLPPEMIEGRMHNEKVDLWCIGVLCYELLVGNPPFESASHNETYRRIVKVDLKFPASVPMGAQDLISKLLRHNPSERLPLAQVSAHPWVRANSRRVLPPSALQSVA
# [4] = target: T1, Serine/threonine-protein kinase TAO3 (Homo sapiens) (UniProt Q9H2K8); assay: Inhibition of human TAOK3/JIK using myelin basic protein as substrate at 1 uM in presence of 32P-ATP by Hotspot assay relative to control; values are per cent of control
# T1 sequence (whole entry): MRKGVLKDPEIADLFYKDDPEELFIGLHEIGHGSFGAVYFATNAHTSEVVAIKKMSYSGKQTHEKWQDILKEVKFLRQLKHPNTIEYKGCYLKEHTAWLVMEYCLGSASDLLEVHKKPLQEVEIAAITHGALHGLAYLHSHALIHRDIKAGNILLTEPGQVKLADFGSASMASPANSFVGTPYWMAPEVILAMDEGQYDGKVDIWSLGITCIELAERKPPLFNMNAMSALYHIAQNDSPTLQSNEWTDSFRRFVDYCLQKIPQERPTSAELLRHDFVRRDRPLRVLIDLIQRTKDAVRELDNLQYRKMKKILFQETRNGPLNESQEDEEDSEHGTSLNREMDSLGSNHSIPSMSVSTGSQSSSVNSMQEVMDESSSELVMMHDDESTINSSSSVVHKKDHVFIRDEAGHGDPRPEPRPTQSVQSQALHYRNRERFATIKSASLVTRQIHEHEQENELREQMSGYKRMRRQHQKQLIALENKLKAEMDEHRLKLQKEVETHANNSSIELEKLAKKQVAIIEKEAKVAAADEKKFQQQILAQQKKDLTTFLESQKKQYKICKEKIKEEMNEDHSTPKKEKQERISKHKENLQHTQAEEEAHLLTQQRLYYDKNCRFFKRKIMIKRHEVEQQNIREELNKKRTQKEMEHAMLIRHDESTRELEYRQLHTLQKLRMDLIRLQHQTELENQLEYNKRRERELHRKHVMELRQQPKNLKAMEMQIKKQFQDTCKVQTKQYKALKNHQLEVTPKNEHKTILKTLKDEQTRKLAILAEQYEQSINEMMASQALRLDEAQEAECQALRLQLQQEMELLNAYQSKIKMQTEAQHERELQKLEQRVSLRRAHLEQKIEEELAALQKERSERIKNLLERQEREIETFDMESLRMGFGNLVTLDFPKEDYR
# [5] = target: T2, Beta-adrenergic receptor kinase 1 (Homo sapiens) (UniProt P25098); assay: Inhibition of human GRK2 using casein as substrate at 1 uM in presence of 32P-ATP by Hotspot assay relative to control; values are per cent of control
# T2 sequence (whole entry): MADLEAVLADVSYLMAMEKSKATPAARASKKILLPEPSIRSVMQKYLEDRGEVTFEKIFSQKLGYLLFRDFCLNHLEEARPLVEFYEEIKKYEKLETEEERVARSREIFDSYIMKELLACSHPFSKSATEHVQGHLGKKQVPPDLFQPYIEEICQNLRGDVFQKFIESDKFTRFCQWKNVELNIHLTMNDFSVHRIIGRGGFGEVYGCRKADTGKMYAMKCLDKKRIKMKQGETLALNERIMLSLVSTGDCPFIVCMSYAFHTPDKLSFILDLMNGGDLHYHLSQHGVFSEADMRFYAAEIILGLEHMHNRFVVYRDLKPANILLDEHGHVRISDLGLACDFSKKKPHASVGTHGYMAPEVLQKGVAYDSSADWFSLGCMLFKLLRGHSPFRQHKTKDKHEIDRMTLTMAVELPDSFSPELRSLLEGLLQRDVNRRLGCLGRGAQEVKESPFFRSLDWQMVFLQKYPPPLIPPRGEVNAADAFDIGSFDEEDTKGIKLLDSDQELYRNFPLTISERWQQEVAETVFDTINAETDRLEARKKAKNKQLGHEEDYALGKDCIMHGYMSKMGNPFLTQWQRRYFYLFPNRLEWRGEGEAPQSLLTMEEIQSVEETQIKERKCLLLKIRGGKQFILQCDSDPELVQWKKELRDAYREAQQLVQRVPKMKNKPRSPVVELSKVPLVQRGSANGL
# [6] = target: Proto-oncogene tyrosine-protein kinase receptor Ret (Homo sapiens) (UniProt P07949); assay: Inhibition of human RET using RRRRRRRRRRRVYSTDYYRLFNPS as substrate at 1 uM in presence of 32P-ATP by Hotspot assay relative to control
# Sequence of Proto-oncogene tyrosine-protein kinase receptor Ret (Homo sapiens) (P07949 whole entry): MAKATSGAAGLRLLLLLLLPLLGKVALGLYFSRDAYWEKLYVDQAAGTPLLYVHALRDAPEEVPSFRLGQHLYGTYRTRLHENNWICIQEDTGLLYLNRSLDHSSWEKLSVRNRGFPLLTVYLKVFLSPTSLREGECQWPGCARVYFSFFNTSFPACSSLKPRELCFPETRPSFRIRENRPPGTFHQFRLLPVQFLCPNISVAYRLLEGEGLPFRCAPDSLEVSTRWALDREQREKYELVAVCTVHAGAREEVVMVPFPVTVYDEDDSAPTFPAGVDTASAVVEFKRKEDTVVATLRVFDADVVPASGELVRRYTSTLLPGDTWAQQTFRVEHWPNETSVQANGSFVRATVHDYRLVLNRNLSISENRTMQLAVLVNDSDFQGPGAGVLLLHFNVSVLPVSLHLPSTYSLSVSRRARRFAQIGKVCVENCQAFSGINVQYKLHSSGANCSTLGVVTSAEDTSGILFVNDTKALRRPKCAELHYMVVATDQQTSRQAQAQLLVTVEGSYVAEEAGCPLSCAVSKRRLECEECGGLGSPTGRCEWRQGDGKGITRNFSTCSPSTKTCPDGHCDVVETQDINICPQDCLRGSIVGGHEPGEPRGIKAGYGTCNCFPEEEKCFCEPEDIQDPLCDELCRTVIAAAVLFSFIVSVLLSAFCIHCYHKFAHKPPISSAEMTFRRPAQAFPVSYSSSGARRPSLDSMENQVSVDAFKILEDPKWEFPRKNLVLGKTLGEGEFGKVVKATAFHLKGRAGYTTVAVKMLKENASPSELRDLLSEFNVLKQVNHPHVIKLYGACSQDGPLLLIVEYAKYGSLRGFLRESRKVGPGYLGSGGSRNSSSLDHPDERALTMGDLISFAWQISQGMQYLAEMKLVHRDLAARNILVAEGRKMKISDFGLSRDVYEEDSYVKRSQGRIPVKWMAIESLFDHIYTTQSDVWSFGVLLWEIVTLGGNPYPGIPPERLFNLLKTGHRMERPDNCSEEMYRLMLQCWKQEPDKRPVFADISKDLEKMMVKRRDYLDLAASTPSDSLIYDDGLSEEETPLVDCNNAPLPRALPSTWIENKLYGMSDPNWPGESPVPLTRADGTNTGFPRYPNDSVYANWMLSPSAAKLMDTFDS
# [7] = target: Cyclin-dependent kinase 4/cyclin D1 (Homo sapiens) (UniProt P11802+P24385); assay: Inhibition of human CDK4/cyclin D1 using RB Protein as substrate at 1 uM in presence of 32P-ATP by Hotspot assay relative to control; values are per cent of control
# [8] = target: T3, Serine/threonine-protein kinase Chk1 (Homo sapiens) (UniProt O14757); assay: Inhibition of human CHK1 using KKKVSRSGLYRSPSMPENLNRPR as substrate at 1 uM in presence of 32P-ATP by Hotspot assay relative to control; values are per cent of control
# T3 sequence (whole entry): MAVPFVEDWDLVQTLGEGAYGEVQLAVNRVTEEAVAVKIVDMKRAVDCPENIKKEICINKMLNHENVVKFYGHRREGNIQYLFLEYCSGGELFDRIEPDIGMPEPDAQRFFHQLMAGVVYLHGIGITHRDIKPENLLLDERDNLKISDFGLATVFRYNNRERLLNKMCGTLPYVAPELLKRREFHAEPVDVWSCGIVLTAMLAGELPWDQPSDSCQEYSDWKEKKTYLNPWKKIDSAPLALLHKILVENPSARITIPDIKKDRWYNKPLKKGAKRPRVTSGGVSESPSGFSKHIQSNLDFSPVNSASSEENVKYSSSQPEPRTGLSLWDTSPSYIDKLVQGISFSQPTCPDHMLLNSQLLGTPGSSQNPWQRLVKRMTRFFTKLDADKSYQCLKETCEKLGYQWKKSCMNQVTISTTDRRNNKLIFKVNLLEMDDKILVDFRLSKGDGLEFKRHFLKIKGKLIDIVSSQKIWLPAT
# Sequence of Non-receptor tyrosine-protein kinase TYK2 (Homo sapiens) (P29597 whole entry): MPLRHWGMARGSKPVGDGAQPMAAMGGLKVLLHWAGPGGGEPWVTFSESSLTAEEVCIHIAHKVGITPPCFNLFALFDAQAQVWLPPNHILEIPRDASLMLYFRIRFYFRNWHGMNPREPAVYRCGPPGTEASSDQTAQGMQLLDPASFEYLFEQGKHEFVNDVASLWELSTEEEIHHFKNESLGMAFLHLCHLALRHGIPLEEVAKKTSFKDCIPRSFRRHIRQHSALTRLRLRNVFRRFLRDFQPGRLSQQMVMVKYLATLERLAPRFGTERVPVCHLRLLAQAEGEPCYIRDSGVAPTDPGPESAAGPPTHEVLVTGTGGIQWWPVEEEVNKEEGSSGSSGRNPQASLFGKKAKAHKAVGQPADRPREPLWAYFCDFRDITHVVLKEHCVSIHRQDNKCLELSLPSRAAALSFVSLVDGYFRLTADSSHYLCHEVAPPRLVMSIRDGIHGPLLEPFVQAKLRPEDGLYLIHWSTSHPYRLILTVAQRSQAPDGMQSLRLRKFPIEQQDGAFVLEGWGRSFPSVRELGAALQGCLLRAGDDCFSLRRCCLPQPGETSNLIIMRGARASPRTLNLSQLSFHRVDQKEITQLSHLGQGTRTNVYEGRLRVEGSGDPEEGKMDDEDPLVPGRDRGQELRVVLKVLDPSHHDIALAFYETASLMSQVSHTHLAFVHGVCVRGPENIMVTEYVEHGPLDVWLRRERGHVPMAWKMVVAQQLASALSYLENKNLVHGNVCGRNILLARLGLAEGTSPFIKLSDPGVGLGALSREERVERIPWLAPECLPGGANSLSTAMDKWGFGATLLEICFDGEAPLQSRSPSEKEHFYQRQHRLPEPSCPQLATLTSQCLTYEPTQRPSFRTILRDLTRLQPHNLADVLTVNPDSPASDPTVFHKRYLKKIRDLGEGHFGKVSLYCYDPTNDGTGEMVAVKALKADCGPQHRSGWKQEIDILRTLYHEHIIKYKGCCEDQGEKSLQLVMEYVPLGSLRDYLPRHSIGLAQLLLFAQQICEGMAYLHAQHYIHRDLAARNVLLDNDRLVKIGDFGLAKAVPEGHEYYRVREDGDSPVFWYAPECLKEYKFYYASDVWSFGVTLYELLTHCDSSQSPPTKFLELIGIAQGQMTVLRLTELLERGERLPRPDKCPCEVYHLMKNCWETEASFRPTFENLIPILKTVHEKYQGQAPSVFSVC
SMILES,residual activity [1] [%],residual activity [2] [%],residual activity [3] [%],residual activity [4] [%],residual activity [5] [%],inhibition [6] [%],residual activity [7] [%],residual activity [8] [%]
Cc1cc(-c2cnc(N)c3c(-c4ccc5scnc5c4)csc23)n(C)n1,99.4,102,89.8,99.4,101,30,105,100
CC(C)S(=O)(=O)c1ccc2nccc(Nc3ccc4scnc4c3)c2c1,101,97,97.5,96.4,101,48.1,95.2,100
CNC(=O)c1ccc2c(c1)ncn2-c1ccc(CC(=O)OC(C)(C)C)cc1,103,90.7,82.1,95.2,97.7,92.2,96.8,84.6
